Laboratory results reported in ChEMBL document CHEMBL4251560, “The Novel 4-Phenyl-2-Phenoxyacetamide Thiazoles modulates the tumor hypoxia leading to the crackdown of neoangiogenesis and evoking the cell death” (Eur J Med Chem, 2018).

Tests used:
Type in all cases: functional, cell-based
MCF7 [1] = assay: Cytotoxicity against human MCF7 cells assessed as reduction in cell viability after 48 hrs by trypan blue exclusion assay; conditions: MCF7, 48 h
MCF7 [2] = assay: Cytotoxicity against human MCF7 cells assessed as reduction in cell viability after 48 hrs by MTT assay; conditions: MCF7, 48 h
A549 [3] = assay: Cytotoxicity against human A549 cells assessed as reduction in cell viability after 48 hrs by trypan blue exclusion assay; conditions: A549, 48 h
A549 [4] = assay: Cytotoxicity against human A549 cells assessed as reduction in cell viability after 48 hrs by MTT assay; conditions: A549, 48 h
Ehrlich [5] = assay: Cytotoxicity against mouse EAC cells assessed as reduction in cell viability after 48 hrs by trypan blue exclusion assay
Ehrlich [6] = assay: Cytotoxicity against mouse EAC cells assessed as reduction in cell viability after 48 hrs by MTT assay
[7] = Cytotoxicity against mouse DLA cells assessed as reduction in cell viability after 48 hrs by trypan blue exclusion assay
[8] = Cytotoxicity against mouse DLA cells assessed as reduction in cell viability after 48 hrs by MTT assay
MDA-MB-468 [9] = assay: Cytotoxicity against human MDA-MB-468 cells assessed as reduction in cell viability after 48 hrs by trypan blue exclusion assay; conditions: MDA-MB-468, 48 h
MDA-MB-468 [10] = assay: Cytotoxicity against human MDA-MB-468 cells assessed as reduction in cell viability after 48 hrs by MTT assay; conditions: MDA-MB-468, 48 h

Row | SMILES | IC50 (MCF7 [1]) [µM] | IC50 (MCF7 [2]) [µM] | IC50 (A549 [3]) [µM] | IC50 (A549 [4]) [µM] | IC50 (Ehrlich [5]) [µM] | IC50 (Ehrlich [6]) [µM] | IC50 [7] [µM] | IC50 [8] [µM] | IC50 (MDA-MB-468 [9]) [µM] | IC50 (MDA-MB-468 [10]) [µM]
1 | Cc1ccccc1OCC(=O)Nc1nc(-c2ccc(Br)cc2)cs1 | 39.7 | 40.1 | 49.8 | 50.1 | 44.5 | 44.9 | 62.8 | 62.2 | 44.5 | 44.9
2 | Cc1cc(Cl)ccc1OCC(=O)Nc1nc(-c2ccc(Cl)cc2)cs1 | 40.1 | 40.6 | 43.1 | 43.4 | 52.1 | 52.4 | 40.6 | 40.1 | 52.1 | 52.4
3 | O=C(COc1ccc(F)cc1F)Nc1nc(-c2ccc(Br)cc2)cs1 | 52.1 | 52.9 | 59.1 | 58.8 | 44.7 | 44.2 | 55.3 | 55.8 | 44.7 | 44.2
4 | Cc1ccc(-c2csc(NC(=O)COc3ccccc3)n2)cc1 | 43 | 43 | 41.1 | 41.7 | 49.8 | 50.1 | 51.7 | 52.1 | 54.5 | 54.9
5 | Cc1ccc(-c2csc(NC(=O)COc3ccccc3C(C)C)n2)cc1 | 49 | 49.2 | 44.7 | 44.2 | 42.8 | 42.9 | 52.2 | 52.9 | 56.8 | 55.5
6 | Cc1ccc(-c2csc(NC(=O)COc3ccccc3C)n2)cc1 | 53.2 | 53.5 | 50.1 | 50.9 | 54.9 | 54.4 | 46.6 | 46.5 | 51.7 | 52.1
7 | Cc1ccc(-c2csc(NC(=O)COc3ccc(Cl)c(C)c3)n2)cc1 | 41.5 | 40.9 | 44.5 | 44.9 | 59.1 | 58.8 | 59.1 | 60.3 | 54.7 | 54.2
8 | Cc1cc(OCC(=O)Nc2nc(-c3ccc(Br)cc3)cs2)ccc1Cl | 51.7 | 52.1 | 51.7 | 52.1 | 47.1 | 47.8 | 39.7 | 40.1 | 51.7 | 52.1
9 | Cc1ccc(-c2csc(NC(=O)COc3ccc(Cl)cc3)n2)cc1 | 43.7 | 43.8 | 44.7 | 44 | 42 | 42.5 | 52.1 | 52.4 | 44.7 | 44.2
10 | Cc1ccc(-c2csc(NC(=O)COc3ccc(Br)cc3)n2)cc1 | 39 | 39.1 | 37.1 | 37.2 | 48.5 | 48.2 | 51.7 | 52.1 | 40.1 | 40.9
11 | O=C(COc1ccccc1)Nc1nc(-c2ccc(Br)cc2)cs1 | 54 | 54.3 | 52.2 | 52.9 | 37.1 | 37.2 | 55.9 | 60.3 | 37.1 | 37.2
12 | Cc1ccc(OCC(=O)Nc2nc(-c3ccc(C)cc3)cs2)cc1 | 41.4 | 41.3 | 48.8 | 48.3 | 45.1 | 45.7 | 39.7 | 40.1 | 37.1 | 37.2
13 | O=c1[nH]cc(F)c(=O)[nH]1 [FLUOROURACIL] | 10.6 | 10.2 |  |  | 9.6 | 9.2 | 10.6 | 10.8 | 44.6 | 44.9
14 | O=C(COc1ccc(Br)cc1)Nc1nc(-c2ccc(Cl)cc2)cs1 | 52.1 | 52.4 | 54.9 | 54.4 | 51.7 | 52.1 | 40.1 | 40.6 | 50.9 | 45.1
15 | O=C(COc1ccc(F)cc1)Nc1nc(-c2ccc(Cl)cc2)cs1 | 35.3 | 35.5 | 36.3 | 36.5 | 35.9 | 35.3 | 35.1 | 35.9 | 42.9 | 42.1
16 | Cc1ccccc1OCC(=O)Nc1nc(-c2ccc(Cl)cc2)cs1 | 62.8 | 62.2 | 64.8 | 64.9 | 63.1 | 62.3 | 49 | 49.2 | 52.1 | 40.1
17 | O=C(COc1ccc(Cl)cc1)Nc1nc(-c2ccc(Br)cc2)cs1 | 41.4 | 41.1 | 46.4 | 46.1 | 40.6 | 40.1 | 55.9 | 60.3 | 51.7 | 52.1
18 | CC(C)c1ccccc1OCC(=O)Nc1nc(-c2ccc(Br)cc2)cs1 | 43.5 | 42.5 | 48.5 | 48.2 | 50.1 | 50.9 | 45.1 | 45.7 | 50.1 | 50.9
19 | Cc1ccc(OCC(=O)Nc2nc(-c3ccc(Br)cc3)cs2)cc1 | 52.4 | 52.2 | 58.6 | 58.8 | 55.3 | 55.8 | 43.5 | 42.5 | 44.5 | 44.9
20 | Cc1ccc(-c2csc(NC(=O)COc3ccc(F)cc3)n2)cc1 | 18.1 | 18.3 | 19.1 | 19.3 | 18.1 | 18.4 | 18.1 | 18.9 | 24.4 | 24.9
21 | CC(C)c1ccc(OCC(=O)Nc2nc(-c3ccc(Cl)cc3)cs2)c(C(C)C)c1 | 40.6 | 40.1 | 48.6 | 48.8 | 62.8 | 62.2 | 54 | 54.3 | 41.1 | 41.7
22 | O=C(COc1ccccc1)Nc1nc(-c2ccc(Cl)cc2)cs1 | 55.9 | 60.3 | 42.8 | 42.9 | 56.8 | 55.5 | 53.2 | 53.5 | 44.2 | 55.3
23 | O=C(COc1ccc(Br)cc1)Nc1nc(-c2ccc(Br)cc2)cs1 | 44.5 | 44.9 | 46.6 | 46.5 | 41.1 | 41.7 | 52.1 | 52.4 | 41.1 | 41.7
24 | O=C(COc1ccc(F)cc1F)Nc1nc(-c2ccc(Cl)cc2)cs1 | 25.3 | 25.8 | 26.3 | 26.5 | 26.5 | 26.2 | 26.4 | 26.1 | 32.3 | 32.9
25 | O=C(COc1ccc(F)cc1)Nc1nc(-c2ccc(Br)cc2)cs1 | 56.8 | 55.5 | 51.7 | 52.1 | 45.3 | 45.5 | 43.5 | 42.5 | 51.7 | 52.1
26 | O=C(COc1ccc(Cl)cc1)Nc1nc(-c2ccc(Cl)cc2)cs1 | 44.1 | 44.5 | 49.1 | 49.9 | 52.1 | 51.9 | 52.1 | 53.2 | 56.8 | 55.5
27 | CC(C)c1ccccc1OCC(=O)Nc1nc(-c2ccc(Cl)cc2)cs1 | 18.1 | 18.7 | 17.1 | 17.8 | 49.8 | 50.1 | 40.1 | 40.6 | 55.5 | 53.2
28 | Cc1ccc(OCC(=O)Nc2nc(-c3ccc(Cl)cc3)cs2)cc1 | 48.8 | 48.7 | 44.8 | 45.7 | 40.1 | 40.6 | 52.1 | 52.9 | 50.1 | 50.9
